# Test system: transformant cell line NS0/LCA-CCR4 producing chimeric anti-CCR4 antibody
# Test: Batch culture of antibody-producing cells in Q10-containing serum fraction-added medium (Example 4)
# Type: cell-based, mouse
# Details: 100 μmol/L Q10 (added as SANOMIT), 4th day
# Description: The batch culture was performed using transformant cell line NS0/LCA-CCR4 (FERM BP-7964) producing chimeric anti-CCR4 antibody as prepared in Reference Example 1. […]
# The cumulative number of viable cells is shown as the total sum of the viable cell density multiplied by the time as elapsed. In the present Example, as the viable cell density was measured once, the cumulative number of viable cells was calculated by the following equation as a trapezoidal area formed by the change of the cell density with time related to the inoculated cell density and the measured cell density. Cumulative number of viable cells (cells/mL×days)=(inoculated cell density+measured cell density)×time as elapsed÷2
# The specific antibody production rate and the relative specific antibody production rate were calculated respectively by the method described in Example 1.
# (3) Quantitative Determination of an Antibody in a Culture Supernatant by IgG-ELISA
# The concentration of chimeric anti-CCR4 antibody in the culture supernatant was measured as follows. […]
smiles,measurement,setting,value
COC1=C(OC)C(=O)C(C/C=C(\C)CC/C=C(\C)CC/C=C(\C)CC/C=C(\C)CC/C=C(\C)CC/C=C(\C)CC/C=C(\C)CC/C=C(\C)CC/C=C(\C)CCC=C(C)C)=C(C)C1=O [Q10],cumulative number of cells on the completion of culturing,Q10-free culture 1.59×10^6,1.34×10^6 cells/mL×days
same,relative specific antibody production rate,Q10-free culture = 100%,131.9%
